The values that follow come from patent US20260308149A1, “NOVEL CARBOXAMIDE DERIVATIVES” (ANGELINI PHARMA S.P.A., priority 2023, published 2026).

Structures are written as SMILES. pEC50: −log10 of the molar value.

The target of this experiment is T1, human Kv7.2 (Homo sapiens, UniProt O43526).
T1 construct: expressed in transfected cells
T1 sequence (O43526 whole entry): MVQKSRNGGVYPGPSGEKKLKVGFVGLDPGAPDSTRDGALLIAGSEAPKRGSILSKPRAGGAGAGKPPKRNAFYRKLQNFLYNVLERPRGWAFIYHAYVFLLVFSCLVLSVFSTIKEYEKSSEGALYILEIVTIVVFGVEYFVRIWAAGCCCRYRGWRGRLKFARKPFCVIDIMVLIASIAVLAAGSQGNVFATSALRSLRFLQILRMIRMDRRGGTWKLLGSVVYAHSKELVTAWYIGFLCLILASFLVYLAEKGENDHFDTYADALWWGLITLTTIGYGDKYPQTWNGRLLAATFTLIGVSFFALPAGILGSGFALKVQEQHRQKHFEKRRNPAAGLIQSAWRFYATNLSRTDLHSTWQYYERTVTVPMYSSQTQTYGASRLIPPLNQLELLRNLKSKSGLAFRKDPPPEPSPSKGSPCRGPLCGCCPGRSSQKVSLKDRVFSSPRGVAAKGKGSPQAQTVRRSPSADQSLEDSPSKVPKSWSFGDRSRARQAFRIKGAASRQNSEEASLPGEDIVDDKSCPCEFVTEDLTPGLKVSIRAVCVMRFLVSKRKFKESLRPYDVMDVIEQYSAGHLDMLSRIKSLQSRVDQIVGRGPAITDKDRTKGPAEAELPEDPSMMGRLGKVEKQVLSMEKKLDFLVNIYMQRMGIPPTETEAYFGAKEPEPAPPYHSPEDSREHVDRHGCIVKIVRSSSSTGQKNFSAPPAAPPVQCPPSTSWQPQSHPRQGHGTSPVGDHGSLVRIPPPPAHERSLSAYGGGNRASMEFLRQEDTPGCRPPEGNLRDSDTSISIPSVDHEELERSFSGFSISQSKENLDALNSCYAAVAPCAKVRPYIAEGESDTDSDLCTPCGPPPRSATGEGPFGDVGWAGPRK
The experiment in a line: activation (potentiation) of Kv7.2 current, SyncroPatch 384 electrophysiology in CHO cells stably expressing human Kv7.2. The experiment is classed as cell-based. To be noted: human Kv7.2 in CHO cells; in presence of 5.6 μM zinc pyrithione; % activation relative to 30 μM ML-213. On the procedure:
The potency of Kv7 potentiators was determined using the SyncroPatch 384 (Nanion) high throughput electrophysiology platform.
CHO cells stably expressing either human Kv7.2, Kv7.4 or Kv7.5/7.3 under a constitutive CMV promoter were used for these studies. Cells were maintained in F12 Hams+1 mM L-glutamine (Hyclone) supplemented with 10% FBS (Sigma), 0.3×NEAA (Non-essential Gamino-acids) and 400 ug/ml G418 at 37° C. in 5% CO2. Cells were cultured in T-225 flasks (Nunc) for 2-3 days to reach 85-95% confluence prior to electrophysiological recording.
Earle's balanced salt solution (in mM): 135 NaCl, 5.4 KCl, 5 Glucose, 2 CaCl2), 1 MgCl2, 5 HEPES, pH 7.4. Seal enhancer solution (in mM): 90 NaCl, 3 KCl, 35 CaCl2), 10 MgCl2, 10 HEPES, pH 7.4. Extracellular recording solution (in mM): 71 NaCl, 70 NMDG, 13 KCl. 5 Glucose, 2 CaCl2, 1 MgCl2, 10 HEPES, pH 7.4. Intracellular recording solution (in mM): 130 KF, 20 KCl, 4 EGTA, 10 HEPES, 2 EDTA, 0.01 Escin, pH 7.2.
Cells were harvested for electrophysiological recording upon reaching appropriate confluence. Cells were first washed in DPBS (Hyclone, Cat #SH30028.03) and then 2 ml of Accutase (MP Biomedicals #1000449) was added at 28° C. until ~90% of cells were suspended. F12 HAM's media+1 mM L-glutamine (Hyclone, SH30026.02) was then added to the flask to dilute the accutase. Cells were then triturated until a single cell suspension was achieved, a cell count was performed, and cells were centrifuged for 2 min. at 1,000 rpm. Media was then aspirated, and cells were resuspended in Earle's balanced salt solution to a concentration of 0.75×10^6 cells/ml and allowed to recover for 25 min at 10° C.
At the beginning of each assay, 20 μl of cell suspension was dispensed into each well of a multi-hole 384-well SyncroPatch chip by the onboard pipettor. Cell sealing was initiated, and seal enhancer solution was added to facilitate seal formation. Upon completion of sealing, cells were washed 3 times with extracellular recording solution and the assay voltage protocol was started. Human Kv7.2, Kv7.4 or Kv7.5/7.3 channels were evaluated using a voltage protocol in which cells were voltage-clamped at a holding potential of −60 mV. Potassium currents were continuously activated with a series of three voltage steps to −30 mV for 3 seconds, 40 mV for 1 second and −90 mV for 4 seconds with 12 seconds between successive voltage sweeps. Potassium currents were measured from the −90 mV repolarizing step. Baseline current was assessed for 3.5 minutes prior to the addition of 5.6 μM zinc pyrithione (1 μM for Kv7.4). Kv7.2, Kv7.4 or Kv7.5/7.3 current in the presence of zinc pyrithione was acquired over five minutes to allow channels to reach steady state activity prior to addition of test agents. Channel activity was monitored for three minutes preceding the addition of 30 μM ML-213 (3 minutes) to achieve maximum activation. 150 mM TEA with 10 μM XE-991 was applied for 2 minutes to measure the leak current during maximum inhibition of Kv7.2, Kv7.4 or Kv7.5/7.3 channels.
Data were collected on the SyncroPatch platform using PatchControl software (Nanion) and processed and analyzed using DataControl Software (Nanion). Percent activation was calculated from potassium current as follows: The average current for the 5 sweeps in the presence of zinc pyrithione immediately preceding test agent addition was taken as the ‘control’ data. Likewise, the average potassium current in the presence of test agents 5 sweeps immediately preceding addition of 30 μM ML-213 was determined for ‘drug’ data. The average potassium current 5 sweeps immediately prior to addition of 150 mM TEA+10 μM XE-991 was determined for ‘max activation’ data while average currents from 5 sweeps immediately following addition of TEA was determined for ‘max inhibition’ data. Percent activation for each of the 384-wells of a sealchip was calculated as ((‘drug’−‘max inhibition’)/(‘max activation’−‘max inhibition’))*100 with Pipeline Pilot (Accelrys). […]
Background: The patch-clamp technique gives a direct electrical read-out from membranes.
As usually defined, the pEC50 is the EC50 on a negative log10 scale, so that one unit is a factor of ten. Regarding `O=C(CC12CC(C1)C2)NCC1(c2cccc(Cl)c2)CCO1` (centres unmarked) [Example 63], the pEC50 is 5.28.

On to `N#Cc1cccc([C@]2(CNC(=O)C3CC34CCOCC4)CCO2)c1` (stereo partly drawn) [Example 106, N-[[(2S)-2-(3-cyanophenyl)oxetan-2-yl]methyl]-6-oxaspiro[2.5]octane-2-carboxamide], for which the pEC50 is 5.39.

As for `COC(CNC(=O)[C@H]1C[C@@H]1c1ccccc1)c1cccc(Cl)c1` (mixture of isomers) [Example 20, rac-(1R,2R)-N-[2-(3-chlorophenyl)-2-methoxy-ethyl]-2-phenyl-cyclopropanecarboxamide], the pEC50 is 6.01.

In the case of `COc1cccc(NC(=O)NC[C@](C)(OC)c2cccc(Cl)c2)c1` [Example 17, 1-[(2R)-2-(3-chlorophenyl)-2-methoxy-propyl]-3-(3-methoxyphenyl)urea], the pEC50 is 5.78.

Regarding `CO[C@@](C)(CNC(=O)NC1CCCC1)c1cccc(Cl)c1` [Example 16, 1-[(2R)-2-(3-chlorophenyl)-2-methoxy-propyl]-3-cyclopentyl-urea], the pEC50 was 5.54.

Regarding `N#Cc1cccc(C2(CNC(=O)CC3CCCCC3)CCC(=O)O2)c1` (centres unmarked) [Example 90, N-[[2-(3-cyanophenyl)-5-oxo-tetrahydrofuran-2-yl]methyl]-2-cyclohexyl-acetamide], the pEC50 is 6.02.

As to `O=C(NCC1(c2cccc(OC(F)F)n2)CCO1)[C@H]1C[C@@H]1C(F)(F)F` (stereo partly drawn) [Example 130, (1S,2S)—N-[[2-[6-(difluoromethoxy)-2-pyridyl]oxetan-2-yl]methyl]-2-(trifluoromethyl)cyclopropanecarboxamide], the pEC50 is 6.17.

Take `N#Cc1cccc([C@]2(CNC(=O)CC3CC4CCC3C4)CCO2)c1` (stereo partly drawn) [Example 108, N-[[(2S)-2-(3-cyanophenyl)oxetan-2-yl]methyl]-2-norbornan-2-yl-acetamide]: the pEC50 is 6.39.

For `O=C(NCC1(c2cccc(OC(F)F)n2)CCO1)C1CC12CCOCC2` (centres unmarked) [Example 115, N-[[2-[6-(difluoromethoxy)-2-pyridyl]oxetan-2-yl]methyl]-6-oxaspiro[2.5]octane-2-carboxamide], the pEC50 was 5.55.

Regarding `CO[C@@](C)(CNC(=O)C1CC12CCC(F)(F)CC2)c1cccc(Cl)c1` (stereo partly drawn) [Example 83, N-[(2R)-2-(3-chlorophenyl)-2-methoxy-propyl]-6,6-difluoro-spiro[2.5]octane-2-carboxamide], the pEC50 was 6.42.

On to `[2H]C([2H])([2H])OC(C)(CNC(=O)NC1CCCC1)c1cccc(Cl)c1` (centres unmarked) [Example 26, 1-[2-(3-chlorophenyl)-2-(trideuteriomethoxy)propyl]-3-cyclopentyl-urea], for which the pEC50 is 5.40.

Regarding `N#Cc1cccc([C@]2(CNC(=O)C3CCC34CCC4)CCO2)c1` (stereo partly drawn) [Example 100, N-[[(2S)-2-(3-cyanophenyl)oxetan-2-yl]methyl]spiro[3.3]heptane-3-carboxamide], the pEC50 is 5.01.

For the compound `COc1cccc(NC(=O)NCC2(c3cccc(Cl)c3)CCO2)c1` (centres unmarked) [Example 50, 1-[[2-(3-chlorophenyl)oxetan-2-yl]methyl]-3-(3-methoxyphenyl)urea], the pEC50 is 5.78.

In the case of `COC(C)(CNC(=O)[C@H]1C[C@@H]1c1ccccc1)c1cccc(Cl)c1` (mixture of isomers) [Example 1, rac-(1S,2S)-N-[2-(3-chlorophenyl)-2-methoxy-propyl]-2-phenyl-cyclopropanecarboxamide], the pEC50 is 6.77.

With `COC(C)(CNC(=O)CCC1CCCC1)c1cccc(Cl)c1` (centres unmarked) [Example 53, N-[2-(3-chlorophenyl)-2-methoxy-propyl]-3-cyclopentyl-propanamide], the pEC50 was 6.05.

Turning to `O=C(NC[C@@]1(c2cccc(Cl)c2)OCC1(F)F)[C@H]1C[C@@H]1c1ccccc1` (stereo in doubt) [Example 41, (1S,2S)-N-[[(2R)-2-(3-chlorophenyl)-3,3-difluoro-oxetan-2-yl]methyl]-2-phenyl-cyclopropanecarboxamide], the pEC50 was 7.30.

Take `CC[C@H]1C[C@@H]1C(=O)NC[C@@]1(c2cccc(C#N)c2)CCO1` (mixture of isomers) [Example 126, (1SR,2SR)—N-[[(2S)-2-(3-cyanophenyl)oxetan-2-yl]methyl]-2-ethyl-cyclopropanecarboxamide]: the pEC50 was 5.30.

Turning to `O=C(NCC1(c2cccc(Cl)c2)CCO1)C1CCCCC1` (centres unmarked) [Example 61], the pEC50 was 5.12.

Turning to `CC(C)(C)[C@@H]1C[C@H]1C(=O)NC[C@@]1(c2cccc(C#N)c2)CCO1` (mixture of isomers) [Example 110, (1RS,2RS)-2-tert-butyl-N-[[(2S)-2-(3-cyanophenyl)oxetan-2-yl]methyl]cyclopropanecarboxamide], the pEC50 was 6.31.

For the compound `N#Cc1cccc([C@]2(CNC(=O)C3CC3C3CCC(F)(F)CC3)CCO2)c1` (stereo partly drawn) [Example 136, N-[[(2S)-2-(3-cyanophenyl)oxetan-2-yl]methyl]-2-(4,4-difluorocyclohexyl)cyclopropanecarboxamide], the negative-log EC50 (pEC50) was 6.40.

For the compound `N#Cc1cccc([C@]2(CNC(=O)[C@H]3C[C@@H]3C3CCC3)CCO2)c1` (mixture of isomers) [Example 101, (1SR,2RS)—N-[[(2S)-2-(3-cyanophenyl)oxetan-2-yl]methyl]-2-cyclobutyl-cyclopropanecarboxamide], the pEC50 was 6.59.

Turning to `O=C(NCC1(c2ccnc(OC(F)F)c2)CCO1)C1CC12CCC(F)(F)CC2` (centres unmarked) [Example 118, N-[[2-[2-(difluoromethoxy)-4-pyridyl]oxetan-2-yl]methyl]-6,6-difluoro-spiro[2.5]octane-2-carboxamide], the pEC50 is 5.26.

Consider `COc1cccc(NC(=O)NCC2(c3cccc(C)c3)OCCO2)c1` [Example 27, 1-(3-methoxyphenyl)-3-[[2-(m-tolyl)-1,3-dioxolan-2-yl]methyl]urea], for which the pEC50 is 5.49.

Consider `N#Cc1cccc([C@]2(CNC(=O)[C@H]3C[C@@H]3c3ccccn3)CCO2)c1` (mixture of isomers) [Example 124, (1SR,2SR)—N-[[(2S)-2-(3-cyanophenyl)oxetan-2-yl]methyl]-2-(2-pyridyl)cyclopropanecarboxamide], for which the pEC50 was 5.22.

For `N#Cc1cccc([C@]2(CNC(=O)CC3(O)CC4CCC3C4)CCO2)c1` (stereo partly drawn) [Example 111, N-[[(2S)-2-(3-cyanophenyl)oxetan-2-yl]methyl]-2-(2-hydroxynorbornan-2-yl)acetamide], the pEC50 was 5.70.

For `CO[C@@](C)(CNC(=O)[C@H]1C[C@@H]1c1cccnc1)c1cccc(Cl)c1` (mixture of isomers) [Example 48, (1SR,2SR)-N-[(2R)-2-(3-chlorophenyl)-2-methoxy-propyl]-2-(3-pyridyl)cyclopropanecarboxamide], the negative logarithm of the EC50 (pEC50) is 5.02.

Take `N#Cc1cccc([C@]2(CNC(=O)C3C(F)(F)C34CCC4)CCO2)c1` (stereo partly drawn) [Example 96, N-[[(2S)-2-(3-cyanophenyl)oxetan-2-yl]methyl]-2,2-difluoro-spiro[2.3]hexane-1-carboxamide]: the negative logarithm of the EC50 (pEC50) is 5.07.

For the compound `N#Cc1cccc(C2(CNC(=O)CC3CCCCC3)OCC2(F)F)c1` (centres unmarked) [Example 91, N-[[2-(3-cyanophenyl)-3,3-difluoro-oxetan-2-yl]methyl]-2-cyclohexyl-acetamide], the pEC50 was 5.95.

Consider `COC(C)(CNC(=O)Nc1cccc(C)c1)c1cccc(Cl)c1` (centres unmarked) [Example 6, 1-[2-(3-chlorophenyl)-2-methoxy-propyl]-3-(m-tolyl)urea], for which the pEC50 is 5.62.
